In assay [1] the target is Serine/threonine-protein kinase MARK2 (Homo sapiens) (UniProt Q7KZI7). The note with it: at 10 µM.
Assay [2] has as its target Casein kinase I isoform epsilon (Homo sapiens, UniProt P49674). As to conditions: at 10 µM.
Assay [3] concerns the target T1, Serine/threonine-protein kinase LATS1 (Homo sapiens) (UniProt O95835).
T1 sequence (whole entry): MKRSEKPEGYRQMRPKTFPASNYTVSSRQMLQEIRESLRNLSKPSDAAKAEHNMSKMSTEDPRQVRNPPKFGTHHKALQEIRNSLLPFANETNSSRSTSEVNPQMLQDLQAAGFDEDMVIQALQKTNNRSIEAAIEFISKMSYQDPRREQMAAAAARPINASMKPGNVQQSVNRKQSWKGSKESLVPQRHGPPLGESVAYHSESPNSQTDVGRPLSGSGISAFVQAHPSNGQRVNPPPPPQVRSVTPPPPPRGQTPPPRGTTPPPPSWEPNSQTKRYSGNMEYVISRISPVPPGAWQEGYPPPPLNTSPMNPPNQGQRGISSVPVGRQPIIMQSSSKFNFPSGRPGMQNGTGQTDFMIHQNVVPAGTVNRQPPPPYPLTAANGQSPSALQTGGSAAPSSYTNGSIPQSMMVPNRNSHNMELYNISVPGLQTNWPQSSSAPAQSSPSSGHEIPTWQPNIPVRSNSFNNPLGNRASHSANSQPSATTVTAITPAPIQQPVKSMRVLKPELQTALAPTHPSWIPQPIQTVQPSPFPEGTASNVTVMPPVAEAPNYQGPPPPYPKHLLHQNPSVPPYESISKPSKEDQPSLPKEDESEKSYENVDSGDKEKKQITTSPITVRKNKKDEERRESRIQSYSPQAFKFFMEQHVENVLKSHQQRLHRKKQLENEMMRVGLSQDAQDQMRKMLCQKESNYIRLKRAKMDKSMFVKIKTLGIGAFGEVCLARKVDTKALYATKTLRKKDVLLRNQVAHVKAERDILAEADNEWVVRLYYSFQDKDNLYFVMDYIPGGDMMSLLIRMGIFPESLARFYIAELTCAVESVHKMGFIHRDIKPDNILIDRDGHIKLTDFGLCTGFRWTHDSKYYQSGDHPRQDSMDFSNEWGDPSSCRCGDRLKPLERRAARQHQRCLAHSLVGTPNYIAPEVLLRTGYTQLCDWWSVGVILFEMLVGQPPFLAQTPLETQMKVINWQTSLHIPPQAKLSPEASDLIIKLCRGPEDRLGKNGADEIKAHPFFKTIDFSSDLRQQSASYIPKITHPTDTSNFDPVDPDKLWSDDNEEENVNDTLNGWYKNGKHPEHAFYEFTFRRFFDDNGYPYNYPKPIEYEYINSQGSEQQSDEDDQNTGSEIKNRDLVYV
As to conditions: at 10 µM.

For assay [4], the target named is 5'-AMP-activated protein kinase catalytic subunit alpha-2 (Homo sapiens) (UniProt P54646). The experiment in a line: Selectivity interaction (KinomeScan (DiscoverX)) EUB0001079a PRKAA2. As to conditions: at 1 µM.
Sequence of 5'-AMP-activated protein kinase catalytic subunit alpha-2 (Homo sapiens) (P54646 whole entry, looked up): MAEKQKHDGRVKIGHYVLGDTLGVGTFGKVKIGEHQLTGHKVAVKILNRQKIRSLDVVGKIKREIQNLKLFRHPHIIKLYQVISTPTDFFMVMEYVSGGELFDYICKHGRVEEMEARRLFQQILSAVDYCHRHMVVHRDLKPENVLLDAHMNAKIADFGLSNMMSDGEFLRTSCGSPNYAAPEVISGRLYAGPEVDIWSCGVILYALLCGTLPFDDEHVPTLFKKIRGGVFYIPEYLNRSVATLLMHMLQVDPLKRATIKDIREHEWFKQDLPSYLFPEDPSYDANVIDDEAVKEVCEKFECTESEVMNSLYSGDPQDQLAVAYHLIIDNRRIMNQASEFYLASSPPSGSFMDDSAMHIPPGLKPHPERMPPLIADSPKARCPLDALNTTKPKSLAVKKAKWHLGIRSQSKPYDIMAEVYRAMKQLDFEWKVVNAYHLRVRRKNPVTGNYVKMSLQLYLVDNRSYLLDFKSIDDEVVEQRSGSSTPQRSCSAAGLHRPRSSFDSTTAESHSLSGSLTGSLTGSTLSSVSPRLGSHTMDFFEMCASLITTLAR
In assay [5] the target is 5-hydroxytryptamine receptor 2A (Homo sapiens, UniProt P28223). Description: Selectivity interaction (GPCR panel (PDSP screen)) EUB0001079a HTR2A. As to conditions: at 10 µM.
Sequence of 5-hydroxytryptamine receptor 2A (P28223 whole entry): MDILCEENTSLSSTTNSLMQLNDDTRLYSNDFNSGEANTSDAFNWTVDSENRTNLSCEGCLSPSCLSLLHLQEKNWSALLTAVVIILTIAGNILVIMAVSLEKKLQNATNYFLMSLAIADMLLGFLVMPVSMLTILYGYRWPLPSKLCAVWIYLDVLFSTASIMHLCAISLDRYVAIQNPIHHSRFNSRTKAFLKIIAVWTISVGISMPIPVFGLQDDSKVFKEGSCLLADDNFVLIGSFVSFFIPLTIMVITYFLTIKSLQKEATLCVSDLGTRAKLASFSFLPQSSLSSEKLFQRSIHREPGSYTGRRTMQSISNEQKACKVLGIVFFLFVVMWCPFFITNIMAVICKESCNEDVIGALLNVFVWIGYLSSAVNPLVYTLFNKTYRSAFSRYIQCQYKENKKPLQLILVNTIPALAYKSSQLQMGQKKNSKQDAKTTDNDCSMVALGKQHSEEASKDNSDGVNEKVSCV
In assay [6] the target is NT-3 growth factor receptor (Homo sapiens, UniProt Q16288). The experiment in a line: Selectivity interaction (KinomeScan (DiscoverX)) EUB0000666a NTRK3. As to conditions: at 10 µM.
Sequence of NT-3 growth factor receptor (Q16288 32-839 limits assumed): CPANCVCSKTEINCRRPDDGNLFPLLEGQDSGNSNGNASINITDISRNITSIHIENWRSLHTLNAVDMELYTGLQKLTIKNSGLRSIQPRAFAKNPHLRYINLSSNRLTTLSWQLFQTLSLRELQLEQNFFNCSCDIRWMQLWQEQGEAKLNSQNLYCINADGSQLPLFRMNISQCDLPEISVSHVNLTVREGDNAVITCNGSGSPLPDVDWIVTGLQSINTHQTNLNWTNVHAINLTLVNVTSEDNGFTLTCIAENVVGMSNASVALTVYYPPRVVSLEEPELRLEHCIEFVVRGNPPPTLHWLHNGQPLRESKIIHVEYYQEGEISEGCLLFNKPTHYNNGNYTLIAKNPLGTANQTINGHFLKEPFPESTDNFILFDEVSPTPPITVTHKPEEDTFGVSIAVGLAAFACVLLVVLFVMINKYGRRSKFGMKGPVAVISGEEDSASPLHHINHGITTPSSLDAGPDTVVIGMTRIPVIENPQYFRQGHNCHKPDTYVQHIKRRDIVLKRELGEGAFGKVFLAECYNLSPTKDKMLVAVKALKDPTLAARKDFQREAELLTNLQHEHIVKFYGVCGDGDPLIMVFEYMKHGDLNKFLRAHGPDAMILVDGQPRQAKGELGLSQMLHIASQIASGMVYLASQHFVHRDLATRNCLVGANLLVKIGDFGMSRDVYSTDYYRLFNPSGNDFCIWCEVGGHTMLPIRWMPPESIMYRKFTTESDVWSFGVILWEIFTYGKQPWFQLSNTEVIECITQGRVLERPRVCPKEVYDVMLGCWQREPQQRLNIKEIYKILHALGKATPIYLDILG
The target in assay [7] is Dual specificity tyrosine-phosphorylation-regulated kinase 1B (Homo sapiens, UniProt Q9Y463). Description: Selectivity interaction (Kinase panel (Z-LYTE Assay)) EUB0001632a DYRK1B. The note with it: at 10 µM.
Sequence of Dual specificity tyrosine-phosphorylation-regulated kinase 1B (Q9Y463 whole entry, looked up): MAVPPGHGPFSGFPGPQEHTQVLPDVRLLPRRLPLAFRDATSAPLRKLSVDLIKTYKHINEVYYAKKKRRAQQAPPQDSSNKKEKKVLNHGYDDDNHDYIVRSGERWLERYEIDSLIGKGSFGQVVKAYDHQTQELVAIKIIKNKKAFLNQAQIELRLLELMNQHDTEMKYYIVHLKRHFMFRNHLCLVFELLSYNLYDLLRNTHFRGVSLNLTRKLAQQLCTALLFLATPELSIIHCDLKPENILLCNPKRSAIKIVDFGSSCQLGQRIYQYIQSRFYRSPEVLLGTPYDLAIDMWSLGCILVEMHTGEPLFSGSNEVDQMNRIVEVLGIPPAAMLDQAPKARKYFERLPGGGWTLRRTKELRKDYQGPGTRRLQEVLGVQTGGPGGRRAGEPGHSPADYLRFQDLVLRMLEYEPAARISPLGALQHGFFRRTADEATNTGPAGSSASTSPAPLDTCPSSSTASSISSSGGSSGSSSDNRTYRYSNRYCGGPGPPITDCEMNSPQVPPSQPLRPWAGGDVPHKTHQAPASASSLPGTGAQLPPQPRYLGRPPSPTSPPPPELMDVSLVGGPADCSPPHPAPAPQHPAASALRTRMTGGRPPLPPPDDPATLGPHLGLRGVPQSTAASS
For assay [8], the target named is T2, Interleukin-1 receptor-associated kinase 3 (Homo sapiens) (UniProt Q9Y616).
T2 sequence (whole entry): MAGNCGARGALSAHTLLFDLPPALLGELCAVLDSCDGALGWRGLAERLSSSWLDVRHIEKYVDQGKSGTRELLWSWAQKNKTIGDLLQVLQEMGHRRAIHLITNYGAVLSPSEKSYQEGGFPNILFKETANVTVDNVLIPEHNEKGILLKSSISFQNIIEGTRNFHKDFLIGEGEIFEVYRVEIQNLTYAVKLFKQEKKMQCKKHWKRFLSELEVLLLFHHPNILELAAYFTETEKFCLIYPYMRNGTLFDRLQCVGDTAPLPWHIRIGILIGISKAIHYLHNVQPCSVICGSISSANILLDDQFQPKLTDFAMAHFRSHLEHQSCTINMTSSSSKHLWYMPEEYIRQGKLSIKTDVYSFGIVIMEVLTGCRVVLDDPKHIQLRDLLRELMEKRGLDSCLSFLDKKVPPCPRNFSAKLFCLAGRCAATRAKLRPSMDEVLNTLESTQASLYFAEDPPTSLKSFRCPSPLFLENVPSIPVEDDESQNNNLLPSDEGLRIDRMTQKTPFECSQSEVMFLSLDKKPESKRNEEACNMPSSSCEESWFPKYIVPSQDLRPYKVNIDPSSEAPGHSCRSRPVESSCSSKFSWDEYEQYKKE
Description: Selectivity interaction (ActivX KiNativ screen (kinase selectivity in THP-1 cell lysates)) EUB0000639a IRAK3. Format: subcellular. As to conditions: lysate, at 1 µM.

Assay [9] concerns the target Tyrosine-protein kinase JAK2 (Homo sapiens, UniProt O60674). The experiment in a line: Selectivity interaction (Kinase panel (Invitrogen)) EUB0000639a JAK2. As to conditions: at 200 nM.

Our source for the % of control and % of inhibition values is ChEMBL document CHEMBL5465560, “Selectivity Literature for EUbOPEN Chemogenomic Library” (2024).

The structures appear in SMILES notation.

Sequence of Serine/threonine-protein kinase MARK2 (Homo sapiens) (Q7KZI7 whole entry, canonical isoform): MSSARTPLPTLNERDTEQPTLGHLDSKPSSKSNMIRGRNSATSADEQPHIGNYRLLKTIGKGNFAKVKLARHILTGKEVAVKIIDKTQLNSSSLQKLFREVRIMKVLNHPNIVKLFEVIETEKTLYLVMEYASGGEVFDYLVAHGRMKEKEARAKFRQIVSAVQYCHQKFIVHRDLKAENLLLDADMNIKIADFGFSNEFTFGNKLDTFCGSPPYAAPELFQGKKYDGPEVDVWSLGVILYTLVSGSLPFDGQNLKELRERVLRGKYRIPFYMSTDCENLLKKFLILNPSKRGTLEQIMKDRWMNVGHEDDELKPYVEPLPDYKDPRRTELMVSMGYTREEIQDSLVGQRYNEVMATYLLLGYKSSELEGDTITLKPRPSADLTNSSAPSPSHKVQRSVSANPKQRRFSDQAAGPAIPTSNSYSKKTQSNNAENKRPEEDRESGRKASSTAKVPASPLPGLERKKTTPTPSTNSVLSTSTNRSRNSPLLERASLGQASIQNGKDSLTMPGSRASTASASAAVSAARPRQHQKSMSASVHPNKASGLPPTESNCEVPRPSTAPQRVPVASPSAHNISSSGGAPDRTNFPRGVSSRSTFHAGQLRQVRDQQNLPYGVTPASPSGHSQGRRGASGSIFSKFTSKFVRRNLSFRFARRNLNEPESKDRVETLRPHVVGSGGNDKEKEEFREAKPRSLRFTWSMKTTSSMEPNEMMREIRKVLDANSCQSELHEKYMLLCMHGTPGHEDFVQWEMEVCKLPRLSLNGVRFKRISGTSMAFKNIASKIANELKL
Sequence of Tyrosine-protein kinase JAK2 (O60674 whole entry): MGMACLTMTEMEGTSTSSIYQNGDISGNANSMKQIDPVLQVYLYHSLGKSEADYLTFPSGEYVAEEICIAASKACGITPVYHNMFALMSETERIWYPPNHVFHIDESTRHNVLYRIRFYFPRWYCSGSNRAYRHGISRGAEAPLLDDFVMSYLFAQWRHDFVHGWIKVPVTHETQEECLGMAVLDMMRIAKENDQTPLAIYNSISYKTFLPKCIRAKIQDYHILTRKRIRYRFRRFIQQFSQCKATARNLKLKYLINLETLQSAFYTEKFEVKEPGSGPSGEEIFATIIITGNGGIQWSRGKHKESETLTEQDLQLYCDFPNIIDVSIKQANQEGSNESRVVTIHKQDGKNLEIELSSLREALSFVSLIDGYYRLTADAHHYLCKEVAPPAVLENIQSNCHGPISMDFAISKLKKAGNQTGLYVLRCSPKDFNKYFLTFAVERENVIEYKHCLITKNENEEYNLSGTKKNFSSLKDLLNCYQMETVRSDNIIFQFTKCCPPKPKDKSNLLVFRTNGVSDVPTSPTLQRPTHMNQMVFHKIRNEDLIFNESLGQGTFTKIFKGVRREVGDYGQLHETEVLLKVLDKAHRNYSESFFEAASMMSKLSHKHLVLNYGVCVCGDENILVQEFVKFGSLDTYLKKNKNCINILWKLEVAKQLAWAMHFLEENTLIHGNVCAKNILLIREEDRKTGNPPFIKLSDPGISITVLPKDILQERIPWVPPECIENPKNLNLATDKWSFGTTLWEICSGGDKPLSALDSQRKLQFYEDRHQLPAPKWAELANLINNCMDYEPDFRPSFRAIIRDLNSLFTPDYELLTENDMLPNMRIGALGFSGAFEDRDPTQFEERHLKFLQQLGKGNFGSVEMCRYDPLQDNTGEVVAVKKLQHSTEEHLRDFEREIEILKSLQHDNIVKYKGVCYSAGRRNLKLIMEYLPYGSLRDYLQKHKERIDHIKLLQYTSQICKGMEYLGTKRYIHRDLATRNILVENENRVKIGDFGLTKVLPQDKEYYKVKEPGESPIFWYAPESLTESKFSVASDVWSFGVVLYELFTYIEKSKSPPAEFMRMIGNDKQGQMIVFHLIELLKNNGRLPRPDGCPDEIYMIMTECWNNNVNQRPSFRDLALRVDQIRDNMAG
Sequence of Casein kinase I isoform epsilon (P49674 whole entry, looked up, canonical isoform): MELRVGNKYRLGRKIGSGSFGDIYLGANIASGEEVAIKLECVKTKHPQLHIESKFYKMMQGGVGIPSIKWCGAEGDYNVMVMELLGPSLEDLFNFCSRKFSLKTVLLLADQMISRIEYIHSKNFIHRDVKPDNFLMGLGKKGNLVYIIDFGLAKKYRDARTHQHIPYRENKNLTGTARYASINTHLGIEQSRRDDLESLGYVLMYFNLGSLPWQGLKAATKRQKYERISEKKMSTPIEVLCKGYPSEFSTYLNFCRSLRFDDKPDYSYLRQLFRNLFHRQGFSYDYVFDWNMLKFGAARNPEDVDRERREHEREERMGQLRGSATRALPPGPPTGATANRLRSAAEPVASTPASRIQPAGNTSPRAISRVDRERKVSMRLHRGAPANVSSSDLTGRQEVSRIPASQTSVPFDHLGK

`Cc1cc([C@@H](C)Nc2ccccc2C(=O)O)c2nc(N3CCOCC3)cc(=O)n2c1` [AZD-6482] returned a % of control in [1] of 90%. In the case of `CCN(CC)CCCCNc1ncc2cc(-c3cc(OC)cc(OC)c3)c(NC(=O)NC(C)(C)C)nc2n1`, the % of control in assay [2] and in [3] was 100% each time. In turn, `Nc1cnc(N2CCc3cc(S(=O)(=O)Nc4c(F)cc(Cl)cc4F)cc(N4CCCC4=O)c32)nc1` [TP-020n] returned a % of control in [4] of 100%. The % of inhibition in assay [5] is -2.82%. As to `O=C(NOC[C@H](O)CO)c1ccc(F)c(F)c1Nc1ccc(I)cc1F`, in [6], the % of control was determined as 93%. Regarding `Cn1cc(-n2cnc3c(NCc4nc5cc(Cl)c(Cl)cc5[nH]4)nc(N4CCOCC4)nc32)cn1`, the % of control in assay [7] amounted to 3.54%. Consider `CC[C@@H]1[C@H](F)C(=O)N[C@@H]1COc1nccc2cc(C(N)=O)c(OC)cc12` [ZIMLOVISERTIB], for which the % of inhibition came out at 73% in assay [8] and 17.6% in [9].
